We go through three compounds from publication PMC12647759 (Scientific Reports, 2025).

The test system of one assay is PLC. The settings on record: cited from earlier work.
A further assay deals with T1, human PLCε (Homo sapiens, UniProt Q9P212).
T1 construct: expressing the full-length polypeptides of human PLCε, PLCβ4, PLCδ1 and PLCγ1 as FLAG fusions; made in house; host or cells: Expi293F cells
The experiment in a line: In vitro PLC assay using fluorogenic substrate Compound 1 (HTS), PLCε. It counts as biochemical. The following applies: Compound 1 as substrate, varying concentrations. On the procedure:
For measuring inhibition by compounds for HTS, the reactions were conducted at RIKEN Center for Sustainable Resource Science (CSRS) as described above except that 5 µl of compound solution and 5 µl of purified PLCe (120 ng) were added to each well. […] For determination of the IC50 values for ZPT and Zn^2+, the EDTA concentration was reduced to one-tenth to avoid its zinc-chelating effect. For assay of the other PLC classes, the reactions were performed similarly except that PLCβ4 (5 ng), PLCδ1 (0.1 ng) or PLCγ1 (0.3 ng) was used instead of PLCε.

Assay [1] relates to DSS-induced inflammatory colitis. The experiment in a line: DSS-induced inflammatory colitis. Format: in vivo, mice. The settings on record: 2.5% DSS 7 days; i.p. once a day, ZPT 2.5, 5 or 10 mg/kg, dipyrithione 10 mg/kg. How it is done: To induce inflammatory colitis, 10 weeks-old C57BL/6JJc1 mice were allowed to take drinking water containing 2.5% (w/v) DSS (molecular weight 36,000 ~ 50,000; Wako Pure Chemical, Osaka, Japan) ad libitum for 7 days[9],[30]. During this period, they were administered intraperitoneally with ZPT, dipyrithione or a vehicle (0.5% carboxymethyl cellulose and 0.9% NaCl) once a day. Thereafter, their colons were excised, washed with PBS, dissected longitudinally, fixed in 4% paraformaldehyde (PFA), embedded in paraffin and serially sectioned as described. The Sect. (10-µm thick) were subjected to H&E staining. Images were taken with an Olympus FSX100 microscope and Olympus FSX100-BSW software. The severity of inflammatory colitis was also assessed by measuring the body weight loss and the colon length shortening.

The subject of assay [2] is intestinal tumours of Apc^Min/+ mice. The experiment in a line: Intestinal tumourigenesis of Apc^Min/+ mice. Format: in vivo. The following applies: i.p. 3 days per week for 11 weeks, ZPT 2.5 or 5 mg/kg, dipyrithione 5 mg/kg. How it is done:
Five weeks-old Apc^Min/+ mice were administered intraperitoneally with ZPT, dipyrithione or the vehicle 3 days per week for 11 weeks. Thereafter, the mice were sacrificed and the whole small intestines were excised, rolled up in a ‘Swiss roll’ configuration, embedded in OCT compound and longitudinally sectioned at the 10-µm thickness. One section in the middle position of each intestine was subjected to H&E staining after fixation with 4% PFA, and tumours in the whole section were classified under microscope into hyperplasias, low-grade adenomas, high-grade adenomas and adenocarcinomas according to the histopathological criteria recommended for the study of mouse models of intestinal cancer. The classification was conducted by a pathologist at Pathology Analysis Center (Kanagawa, Japan) under the blind condition regarding the compound administration.

For the next assay, the system named is SW480 cells. Put plainly: Tumour xenograft of SW480 cells in nude mice. The following applies: i.p. 3 days per week for 3 weeks, ZPT 2.5, 5 or 10 mg/kg, dipyrithione 5 mg/kg. Format: in vivo. On the procedure: (§1) Tumour xenograft experiments were performed as previously described. Briefly, SW480 or Caco2 cells (5 × 10^6 cells each) were implanted subcutaneously into the right flanks of female athymic nude (nu/nu) mice (6–8 weeks old, CLEA Japan). One week later, the mice were administered intraperitoneally with ZPT, dipyrithione or the vehicle 3 days per week for 3 or 8 weeks, respectively, during which the volumes (V) of the tumours, calculated by the following formula: V = A × B^2/2 (A: the largest diameter, B: the perpendicular diameter), and the body weight were monitored every 7 days. Thereafter, tumours of the SW480-grafted mice were dissected, weighed, fixed in 4% paraformaldehyde, embedded in paraffin and serially sectioned. The Sect. (10-µm thick) were subjected to immunohistochemical detection of phosphorylated PKD by using anti-phospho-PKD antibody and HISTMOUSE-PLUS Kit (ZYMED Lab., Carlsbad, CA) according to the manufacturer’s protocol.

The subject of assay [3] is Caco2 cells. The experiment in a line: Tumour xenograft of Caco2 cells in nude mice. Format: in vivo. The following applies: i.p. 3 days per week for 8 weeks, ZPT 2.5, 5 or 10 mg/kg, dipyrithione 5 mg/kg. How it is done: as §1
A further assay deals with SW620 cells. The experiment in a line: Experimental lung metastasis of SW620 cells in nude mice. Format: in vivo. The following applies: i.p. twice, one week before and after cell injection, ZPT 2.5 or 5 mg/kg, dipyrithione 5 mg/kg. How it is done: Female nude mice (6–8 weeks old) were injected with SW620 cells (1 × 10^7 cells) suspended in 200 µl L-15 medium via tail vein and maintained for further 8 weeks. ZPT, dipyrithione or the vehicle was administered intraperitoneally to the mice twice, 1 week before and after the cell injection. Thereafter, the mice were sacrificed, and their lungs were excised, fixed in 4% PFA, embedded in paraffin and serially sectioned. The Sect. (10-µm thick) were subjected to H&E staining. For histologic evaluation of lung micro-metastasis, the number of micro-metastatic nodules in 3 non-contiguous lung sections from each mouse was counted under a light microscope as described previously.

The subject of assay [4] is Caco2 cells. Put plainly: Determination of intracellular zinc concentration with Zinquin ethyl ester. The settings on record: 5 µM sodium pyrithione added to 5 µM ZnSO4, 30 min. Format: cell-based, human.
Experimental: Confluent Caco2 cells in a Φ10-cm culture dish were subjected to serum starvation overnight and incubated with 10 µM MG132 for 30 min. […] The cells were harvested by trypsinization, washed with PBS and suspended at the density of 5 × 10^6 cells/ml in Hanks’ balanced salt solution (HBSS). After the addition of 1 mg/ml Zinquin ethyl ester (Dojindo Laboratories, Kumamoto, Japan)[27] dissolved in DMSO at the final concentration of 25 µM, the cell suspension was incubated at 37 °C for 30 min. Subsequently, the cells were washed three times with HBSS, suspended in HBSS at the density of 5 × 10^6 cells/ml and subjected to measurement of the fluorescence emission at 490 nm with the excitation at 370 nm by POLARstar Omega-25.

T1 sequence (Q9P212 whole entry, the tested form may be a part): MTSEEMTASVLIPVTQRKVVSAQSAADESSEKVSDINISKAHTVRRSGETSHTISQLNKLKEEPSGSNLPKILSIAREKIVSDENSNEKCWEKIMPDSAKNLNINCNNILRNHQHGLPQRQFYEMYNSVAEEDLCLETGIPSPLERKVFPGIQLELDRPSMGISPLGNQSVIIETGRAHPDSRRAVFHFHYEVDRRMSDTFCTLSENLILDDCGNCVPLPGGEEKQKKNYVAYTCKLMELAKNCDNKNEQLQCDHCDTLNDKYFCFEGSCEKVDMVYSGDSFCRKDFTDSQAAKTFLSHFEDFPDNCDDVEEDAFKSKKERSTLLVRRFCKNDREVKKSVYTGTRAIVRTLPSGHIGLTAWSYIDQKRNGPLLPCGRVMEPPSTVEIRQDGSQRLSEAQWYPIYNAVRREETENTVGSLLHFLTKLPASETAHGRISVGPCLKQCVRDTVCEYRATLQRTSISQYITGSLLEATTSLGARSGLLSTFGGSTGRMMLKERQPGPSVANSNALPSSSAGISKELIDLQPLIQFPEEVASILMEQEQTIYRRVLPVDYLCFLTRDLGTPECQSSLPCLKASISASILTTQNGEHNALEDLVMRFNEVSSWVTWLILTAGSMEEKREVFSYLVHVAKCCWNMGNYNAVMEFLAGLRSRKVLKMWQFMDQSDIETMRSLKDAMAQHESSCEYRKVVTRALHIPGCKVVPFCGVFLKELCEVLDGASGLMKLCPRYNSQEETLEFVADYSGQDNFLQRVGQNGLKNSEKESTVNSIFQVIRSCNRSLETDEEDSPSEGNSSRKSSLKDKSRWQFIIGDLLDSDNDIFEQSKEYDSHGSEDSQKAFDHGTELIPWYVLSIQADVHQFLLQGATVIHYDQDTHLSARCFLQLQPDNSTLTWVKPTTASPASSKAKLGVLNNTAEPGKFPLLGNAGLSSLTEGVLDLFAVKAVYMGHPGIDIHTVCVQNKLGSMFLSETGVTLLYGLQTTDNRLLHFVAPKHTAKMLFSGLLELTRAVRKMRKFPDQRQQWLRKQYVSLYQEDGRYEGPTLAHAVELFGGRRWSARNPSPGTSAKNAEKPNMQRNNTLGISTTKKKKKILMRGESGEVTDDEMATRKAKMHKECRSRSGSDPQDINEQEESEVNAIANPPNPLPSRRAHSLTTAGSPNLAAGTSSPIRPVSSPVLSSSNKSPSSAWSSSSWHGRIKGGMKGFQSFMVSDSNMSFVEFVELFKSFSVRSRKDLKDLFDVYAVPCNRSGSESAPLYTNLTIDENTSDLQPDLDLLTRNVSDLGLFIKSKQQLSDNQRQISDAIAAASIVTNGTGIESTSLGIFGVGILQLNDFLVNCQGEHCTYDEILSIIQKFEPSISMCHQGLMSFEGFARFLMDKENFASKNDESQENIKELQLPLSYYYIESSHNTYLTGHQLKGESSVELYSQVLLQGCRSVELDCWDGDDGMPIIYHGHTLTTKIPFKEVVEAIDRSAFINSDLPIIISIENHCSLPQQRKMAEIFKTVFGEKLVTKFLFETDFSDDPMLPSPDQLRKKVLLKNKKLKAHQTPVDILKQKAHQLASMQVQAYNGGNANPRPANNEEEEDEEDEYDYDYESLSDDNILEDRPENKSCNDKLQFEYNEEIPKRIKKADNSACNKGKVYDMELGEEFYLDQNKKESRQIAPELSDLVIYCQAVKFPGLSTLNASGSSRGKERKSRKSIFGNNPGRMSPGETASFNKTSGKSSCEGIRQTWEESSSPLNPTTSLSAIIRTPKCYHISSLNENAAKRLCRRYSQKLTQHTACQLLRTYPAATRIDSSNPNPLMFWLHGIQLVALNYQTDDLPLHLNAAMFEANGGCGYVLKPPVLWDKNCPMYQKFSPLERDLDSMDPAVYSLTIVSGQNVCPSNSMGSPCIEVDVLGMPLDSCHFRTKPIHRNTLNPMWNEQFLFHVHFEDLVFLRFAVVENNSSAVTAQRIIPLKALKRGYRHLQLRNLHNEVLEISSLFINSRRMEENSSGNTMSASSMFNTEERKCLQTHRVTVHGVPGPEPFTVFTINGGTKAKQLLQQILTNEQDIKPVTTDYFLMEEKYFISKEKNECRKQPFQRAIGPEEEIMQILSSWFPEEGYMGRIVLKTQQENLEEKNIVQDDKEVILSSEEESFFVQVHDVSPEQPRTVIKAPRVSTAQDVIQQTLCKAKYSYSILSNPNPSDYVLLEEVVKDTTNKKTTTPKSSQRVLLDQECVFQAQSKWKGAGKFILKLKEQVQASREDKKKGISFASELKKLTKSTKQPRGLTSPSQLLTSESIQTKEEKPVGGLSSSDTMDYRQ

Regarding `COc1ccc2c(c1)CC[C@@H]1[C@@H]2CC[C@]2(C)[C@@H](NCCCCCCN3C(=O)C=CC3=O)CC[C@@H]12` [U73122], the “inhibition of PLC catalytic activity in vitro” value with PLC is “failed to inhibit PLC catalytic activity in vitro”.

As for `[O-][n+]1ccccc1SSc1cccc[n+]1[O-]` [dipyrithione], the “inhibition of PLCε” value against human PLCε is listed as “failed to inhibit PLCε”. Moreover, in assay [1], the body weight loss entry is recorded as “failed to alleviate”; the colon length shortening result is given as “failed to alleviate”; the “histology: erosion of the mucosa, swelling of the submucosa and leukocyte infiltration” value was “failed to alleviate”. In addition, the “ratio of high-grade adenomas / progression of low-grade to high-grade adenomas” value in assay [2] is “appeared to accelerate the progression of low-grade adenomas to high-grade adenomas”. In addition, the “growth of grafted cells (tumour volume)” value in the assay on SW480 cells is “not”. Moreover, the “growth of grafted cells (tumour volume)” value in the assay on Caco2 cells [3] is “not”. In the assay with SW620 cells, the “numbers of micro-metastatic nodules in lung sections” value is “exhibited no effect”.

`On1ccccc1=S` [sodium pyrithione]: at human PLCε, the “inhibition of PLCε” value was “failed to inhibit PLCε”. Moreover, the “increase in intracellular Zn^2+ concentration” value in the assay with Caco2 cells [4] worked out at 8.78 fold.
